Assay results taken from the supplement of paper PMC13207355.

Key:
Settings in all cases: exposure time: 72 h
E57 [1] = patient-derived glioblastoma stem cells of mesenchymal subtype; assay: surviving fraction (nuclei count normalised to DMSO); higher = more cells surviving (less toxic)
E28 [2] = patient-derived glioblastoma stem cells of classical subtype; assay: as above
E31 [3] = patient-derived glioblastoma stem cells of proneural subtype; assay: as above
E34 [4] = patient-derived glioblastoma stem cells of proneural subtype; assay: as above
E21 [5] = patient-derived glioblastoma stem cells of mesenchymal subtype; assay: as above
FT3469 [6] = normal neural stem cell line; assay: as above
E13 [7] = patient-derived glioblastoma stem cells of classical subtype; assay: as above
E57 [8] = assay: phenotypic distance (Euclidean, principal components) from DMSO controls (arbitrary units); higher = stronger morphological change
E28 [9] = assay: as above
E31 [10] = assay: as above
E34 [11] = assay: as above
E21 [12] = assay: as above
FT3469 [13] = assay: as above
E13 [14] = assay: as above
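Wherever phenotypic distance (Euclidean, principal components) from DMSO controls is given: cell Painting imaging in 384-well plates, CellProfiler features reduced to at least 20 principal components, Euclidean distance versus same-plate DMSO vehicle wells (0.1% v/v), median over six images per well.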
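Wherever surviving fraction (nuclei count normalised to DMSO) is given: nuclei counted by high-content imaging of Hoechst-stained cells in laminin-coated 384-well plates, relative to 0.1% DMSO vehicle wells, with staurosporine as cell-death control.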

CC(C)C[C@@H](C(=O)N[C@H](C(=O)OC1CCCC1)c1ccccc1)[C@H](O)C(=O)NO [Tosedostat]
Settings	phenotypic distance	surviving fraction
E13 [7], 4.1 nM	–	0.889
E13 [7], 12.3 nM	–	0.853
E13 [7], 37 nM	–	0.863
E13 [7], 111.1 nM	–	1.01
E13 [7], 333.3 nM	–	0.894
E13 [7], 1000 nM	–	0.894
E13 [7], 3000 nM	–	0.934
E13 [14], 4.1 nM	0.738	–
E13 [14], 12.3 nM	0.631	–
E13 [14], 37 nM	1.06	–
E13 [14], 111.1 nM	1.01	–
E13 [14], 333.3 nM	1.39	–
E13 [14], 1000 nM	1.41	–
E13 [14], 3000 nM	1.3	–
E21 [5], 4.1 nM	–	0.858
E21 [5], 12.3 nM	–	0.909
E21 [5], 37 nM	–	0.793
E21 [5], 111.1 nM	–	0.78
E21 [5], 333.3 nM	–	0.772
E21 [5], 1000 nM	–	0.715
E21 [5], 3000 nM	–	0.507
E21 [12], 4.1 nM	0.795	–
E21 [12], 12.3 nM	0.918	–
E21 [12], 37 nM	0.947	–
E21 [12], 111.1 nM	1.11	–
E21 [12], 333.3 nM	1.62	–
E21 [12], 1000 nM	1.49	–
E21 [12], 3000 nM	2.1	–
E28 [2], 4.1 nM	–	0.904
E28 [2], 12.3 nM	–	0.755
E28 [2], 37 nM	–	0.781
E28 [2], 111.1 nM	–	0.846
E28 [2], 333.3 nM	–	0.657
E28 [2], 1000 nM	–	0.692
E28 [2], 3000 nM	–	0.583
E28 [9], 4.1 nM	0.786	–
E28 [9], 12.3 nM	1.24	–
E28 [9], 37 nM	1.27	–
E28 [9], 111.1 nM	1.73	–
E28 [9], 333.3 nM	1.68	–
E28 [9], 1000 nM	2.2	–
E28 [9], 3000 nM	2.09	–
E31 [3], 4.1 nM	–	0.788
E31 [3], 12.3 nM	–	0.935
E31 [3], 37 nM	–	0.7
E31 [3], 111.1 nM	–	0.861
E31 [3], 333.3 nM	–	0.836
E31 [3], 1000 nM	–	0.796
E31 [3], 3000 nM	–	0.683
E31 [10], 4.1 nM	1.18	–
E31 [10], 12.3 nM	0.639	–
E31 [10], 37 nM	1.52	–
E31 [10], 111.1 nM	0.949	–
E31 [10], 333.3 nM	1.01	–
E31 [10], 1000 nM	1.28	–
E31 [10], 3000 nM	1.86	–
E34 [4], 4.1 nM	–	0.968
E34 [4], 12.3 nM	–	0.827
E34 [4], 37 nM	–	0.787
E34 [4], 111.1 nM	–	0.842
E34 [4], 333.3 nM	–	0.662
E34 [4], 1000 nM	–	0.8
E34 [4], 3000 nM	–	0.833
E34 [11], 4.1 nM	0.805	–
E34 [11], 12.3 nM	1.29	–
E34 [11], 37 nM	0.677	–
E34 [11], 111.1 nM	1.91	–
E34 [11], 333.3 nM	1.92	–
E34 [11], 1000 nM	1.4	–
E34 [11], 3000 nM	1.6	–
E57 [1], 4.1 nM	–	0.806
E57 [1], 12.3 nM	–	0.83
E57 [1], 37 nM	–	0.744
E57 [1], 111.1 nM	–	0.679
E57 [1], 333.3 nM	–	0.635
E57 [1], 1000 nM	–	0.708
E57 [1], 3000 nM	–	0.622
E57 [8], 4.1 nM	1.53	–
E57 [8], 12.3 nM	1.55	–
E57 [8], 37 nM	1.95	–
E57 [8], 111.1 nM	2.24	–
E57 [8], 333.3 nM	2.7	–
E57 [8], 1000 nM	2.08	–
E57 [8], 3000 nM	2.7	–
FT3469 [6], 4.1 nM	–	0.843
FT3469 [6], 12.3 nM	–	0.843
FT3469 [6], 37 nM	–	0.774
FT3469 [6], 111.1 nM	–	0.831
FT3469 [6], 333.3 nM	–	0.809
FT3469 [6], 1000 nM	–	0.759
FT3469 [6], 3000 nM	–	0.746
FT3469 [13], 4.1 nM	1.7	–
FT3469 [13], 12.3 nM	1.82	–
FT3469 [13], 37 nM	1.97	–
FT3469 [13], 111.1 nM	1.7	–
FT3469 [13], 333.3 nM	1.92	–
FT3469 [13], 1000 nM	2.23	–
FT3469 [13], 3000 nM	2.64	–
